The source of these data is patent US20250122160A1, “PROTEIN TYROSINE PHOSPHATASE INHIBITORS AND METHODS OF USE THEREOF” (Calico Life Sciences LLC, priority 0001, published 2025).

For assay [1], the target named is T1, His tagged full-length PTPN1 protein (Homo sapiens, UniProt P18031).
T1 construct: made in house
T1 sequence (P18031 with tags, fused parts or gaps): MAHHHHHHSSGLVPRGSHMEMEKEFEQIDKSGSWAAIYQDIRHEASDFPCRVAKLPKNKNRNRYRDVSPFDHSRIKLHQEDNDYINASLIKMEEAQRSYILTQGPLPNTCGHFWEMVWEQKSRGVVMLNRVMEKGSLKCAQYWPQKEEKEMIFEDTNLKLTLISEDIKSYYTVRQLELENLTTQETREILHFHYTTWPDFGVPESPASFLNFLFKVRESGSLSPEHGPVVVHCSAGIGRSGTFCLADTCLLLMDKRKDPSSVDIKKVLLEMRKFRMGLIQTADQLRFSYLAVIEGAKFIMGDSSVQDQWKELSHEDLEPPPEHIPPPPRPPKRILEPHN
In words: Mobility shift assay (MSA) to determine potency of PTPN1 inhibitors. Conditions: 0.5 nM enzyme, 2 μM substrate. It counts as biochemical. The procedure, abridged:
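His-tagged full-length human PTPN1 (0.5 nM) preincubated with compound 10 min at room temperature in pH 7.5 HEPES buffer with EGTA, EDTA, Tween 20 and DTT. Dephosphorylation of 2 μM fluorescent phospho-insulin-receptor peptide over 10 min measured by mobility shift. IC50 from % inhibition across a 12-point, 1:3 dilution series.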

Assay [2] concerns the target T2, His tagged PTPN2 (TC45) protein (Homo sapiens, UniProt P17706).
T2 construct: made in house
T2 sequence (P17706 with tags, fused parts or gaps isoform P17706-2): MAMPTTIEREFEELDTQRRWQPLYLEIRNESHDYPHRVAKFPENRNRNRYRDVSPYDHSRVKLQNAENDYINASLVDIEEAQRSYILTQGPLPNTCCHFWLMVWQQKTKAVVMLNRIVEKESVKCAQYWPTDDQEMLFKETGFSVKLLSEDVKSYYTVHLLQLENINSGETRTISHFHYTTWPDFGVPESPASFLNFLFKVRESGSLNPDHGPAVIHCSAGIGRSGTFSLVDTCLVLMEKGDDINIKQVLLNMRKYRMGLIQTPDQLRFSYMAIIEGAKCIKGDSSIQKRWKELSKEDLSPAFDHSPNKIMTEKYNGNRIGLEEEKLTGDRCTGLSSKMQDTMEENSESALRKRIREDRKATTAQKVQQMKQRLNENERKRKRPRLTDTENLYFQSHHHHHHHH
In words: Mobility shift assay (MSA) to determine potency of PTPN2 inhibitors. Type of assay: biochemical. The note with it: 0.5 nM enzyme, 2 μM substrate. The procedure, abridged: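 His-tagged human PTPN2 (TC45), 0.5 nM, preincubated 10 min at room temperature with compound (12-point, 1:3 dilutions) in HEPES pH 7.5 buffer with EGTA, EDTA, Tween 20 and DTT. Then 2 μM OG488-labelled phospho-insulin-receptor peptide was added for 10 min and quenched. % conversion was read by mobility shift, and IC50 came from % inhibition.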

In general, IC50 refers to the concentration that inhibits the measured activity by half. Take `O=C1CN(c2c(O)cc3c(c2F)C[C@H](NCCCOCC(F)F)CO3)S(=O)(=O)N1` [Compound 379, 5-[(3S)-3-{[3-(2,2-difluoroethoxy)propyl]amino}-5-fluoro-7-hydroxy-3,4-dihydro-2H-1-benzopyran-6-yl]-1λ^6,2,5-thiadiazolidine-1,1,3-trione]: the IC50 in assay [1] and in assay [2] was 0.01 to 0.1 µM throughout.
Regarding `O=C1CN(c2c(O)cc3c(c2F)C[C@H](NCCC2CCC2)CC3)S(=O)(=O)N1` [Compound 201], the half-inhibitory concentration (IC50) in assay [1] and in assay [2] was less than 0.001 µM in each case.
In the case of `CC(C)CCNCC1CCc2cc(O)c(N3CC(=O)NS3(=O)=O)c(F)c2C1` (stereo not shown) [Compound 390, 5-(1-fluoro-3-hydroxy-7-{[(3-methylbutyl)amino]methyl}-5,6,7,8-tetrahydronaphthalen-2-yl)-1λ^6,2,5-thiadiazolidine-1,1,3-trione], the IC50 in assay [1] and in assay [2] was 0.01 to 0.1 µM in each case.
On to `Cc1nn(CCCC(C)(C)C#N)c(C)c1CN1CCc2cc(O)c(N3CC(=O)NS3(=O)=O)c(F)c2C1` [Compound 227], for which the 50% inhibitory concentration (IC50) in assay [1] and in assay [2] was greater than 0.1 µM throughout.
Regarding `Cc1cc(CN[C@@H]2CCc3cc(O)c(N4CC(=O)NS4(=O)=O)c(F)c3C2)no1` [Compound 351, 5-[(7R)-1-fluoro-3-hydroxy-7-{[(5-methyl-1,2-oxazol-3-yl)methyl]amino}-5,6,7,8-tetrahydronaphthalen-2-yl]-1λ^6,2,5-thiadiazolidine-1,1,3-trione], the 50% inhibitory concentration (IC50) in assay [1] and in assay [2] was 0.01 to 0.1 µM throughout.
Turning to `CCOCCCN[C@@H]1CCc2cc(O)c(N3CC(=O)NS3(=O)=O)c(F)c2C1` [Compound 354, 5-{(7R)-7-[(3-ethoxypropyl)amino]-1-fluoro-3-hydroxy-5,6,7,8-tetrahydronaphthalen-2-yl}-1λ^6,2,5-thiadiazolidine-1,1,3-trione], the IC50 in assay [1] lay in the range of 0.01 to 0.1 µM; in assay [2], 0.001 to 0.01 µM.
In the case of `O=C1CN(c2c(O)cc3c(c2F)C[C@H](NCCC2CCOC2)CO3)S(=O)(=O)N1` (stereo partly drawn) [Compound 382, 5-[(3S)-5-fluoro-7-hydroxy-3-{[2-(oxolan-3-yl)ethyl]amino}-3,4-dihydro-2H-1-benzopyran-6-yl]-1λ^6,2,5-thiadiazolidine-1,1,3-trione], the IC50 in assay [1] and in assay [2] was 0.01 to 0.1 µM throughout.
Regarding `Cc1nn(C(C)(C)C)c(C)c1CCN1CCc2cc(O)c(N3CC(=O)NS3(=O)=O)c(F)c2C1` [Compound 266], the half-inhibitory concentration (IC50) in assay [1] and in assay [2] was 0.001 to 0.01 µM throughout.
In the case of `O=C1CN(c2c(O)cc3c(c2F)CN(C(=O)NCC2CC(F)(F)C2)CC3)S(=O)(=O)N1` [Compound 262], the values for the IC50 in assay [1] and in assay [2] were 0.001 to 0.01 µM and 0.01 to 0.1 µM, respectively.
On to `N[C@@H]1CCc2cc(O)c(N3CC(=O)NS3(=O)=O)c(F)c2[C@H]1O` [Compound 401, 5-[(7R,8R)-7-amino-1-fluoro-3,8-dihydroxy-5,6,7,8-tetrahydronaphthalen-2-yl]-1λ^6,2,5-thiadiazolidine-1,1,3-trione], for which the half-maximal inhibitory concentration (IC50) in assay [1] and in assay [2] was greater than 0.1 µM in each case.
Regarding `O=C1CN(c2c(O)cc3c(c2F)CN(c2ccccn2)CC3)S(=O)(=O)N1` [Compound 191], the IC50 in assay [1] and in assay [2] was 0.01 to 0.1 µM throughout.
As to `O=C1CN(c2c(O)cc3c(c2F)C[C@H](NCCCc2ccccc2)CO3)S(=O)(=O)N1` [Compound 386, 5-{(3S)-5-fluoro-7-hydroxy-3-[(3-phenylpropyl)amino]-3,4-dihydro-2H-1-benzopyran-6-yl}-1λ^6,2,5-thiadiazolidine-1,1,3-trione], the IC50 in assay [1] and in assay [2] was 0.01 to 0.1 µM each time.
Turning to `COCCCN1CCc2cc(O)c(N3CC(=O)NS3(=O)=O)c(F)c2C1` [Compound 217], the 50% inhibitory concentration (IC50) in assay [1] and in assay [2] was greater than 0.1 µM each time.
Consider `O=C1CN(c2c(O)cc3c(c2F)CN(CCC2CC(F)(F)C2)CC3)S(=O)(=O)N1` [Compound 192], for which the IC50 in assay [1] and in assay [2] was 0.01 to 0.1 µM throughout.
Consider `N[C@@H]1COc2cc(O)c(N3CC(=O)NS3(=O)=O)c(F)c2C1` [Compound 326, 5-[(3S)-3-amino-5-fluoro-7-hydroxy-3,4-dihydro-2H-1-benzopyran-6-yl]-1λ^6,2,5-thiadiazolidine-1,1,3-trione], for which the IC50 in assay [1] and in assay [2] was 0.01 to 0.1 µM in each case.
For the compound `O=C1CN(c2c(O)cc3c(c2F)C[C@H](NCCC2CCOCC2)CO3)S(=O)(=O)N1` [Compound 375, 5-[(3S)-5-fluoro-7-hydroxy-3-{[2-(oxan-4-yl)ethyl]amino}-3,4-dihydro-2H-1-benzopyran-6-yl]-1λ^6,2,5-thiadiazolidine-1,1,3-trione], the IC50 in assay [1] and in assay [2] was 0.01 to 0.1 µM in each case.
For the compound `O=C1CN(c2c(O)cc3c(c2F)CN(C2CNC2)CC3)S(=O)(=O)N1` [Compound 163], the concentration for half-maximal inhibition (IC50) is greater than 0.1 µM in assay [1] and 0.01 to 0.1 µM in assay [2].
For `O=C1CN(c2c(O)cc3c(c2F)CN(CCCN2CCOCC2)CC3)S(=O)(=O)N1` [Compound 229], the IC50 in assay [1] and in assay [2] was 0.01 to 0.1 µM each time.
For `[2H]C1([2H])Cc2cc(O)c(N3CC(=O)NS3(=O)=O)c(F)c2C([2H])([2H])[C@@]1([2H])NCCC(C)C` (single isomer, unassigned) [Compound 370], the IC50 was greater than 0.1 µM in assay [1] and 0.01 to 0.1 µM in assay [2].
Consider `O=C1CN(c2c(O)cc3c(c2F)CN(CC[C@H]2C[C@@H](OC(F)(F)F)C2)CC3)S(=O)(=O)N1` [Compound 231], for which the values for the IC50 in assay [1] and in assay [2] were 0.001 to 0.01 µM and 0.01 to 0.1 µM, respectively.
For the compound `NCCC1(CCN[C@@H]2CCc3cc(O)c(N4CC(=O)NS4(=O)=O)c(F)c3C2)CCC1` [Compound 377, 5-[(7R)-7-({2-[1-(2-aminoethyl)cyclobutyl]ethyl}amino)-1-fluoro-3-hydroxy-5,6,7,8-tetrahydronaphthalen-2-yl]-1λ^6,2,5-thiadiazolidine-1,1,3-trione], the IC50 in assay [1] was 0.001 to 0.01 µM; in assay [2], less than 0.001 µM.
Take `CC(C)(C)OC(=O)NCC1CCc2cc(O)c(N3CC(=O)NS3(=O)=O)c(F)c2C1` (stereo not shown) [Compound 391, tert-butyl {[8-fluoro-6-hydroxy-7-(1,1,4-trioxo-1λ^6,2,5-thiadiazolidin-2-yl)-1,2,3,4-tetrahydronaphthalen-2-yl]methyl}carbamate]: the IC50 in assay [1] and in assay [2] was 0.01 to 0.1 µM each time.
Turning to `O=C1CN(c2c(O)cc3c(c2F)C[C@H](NCc2ccc(CO)o2)CC3)S(=O)(=O)N1` [Compound 359, 5-[(7R)-1-fluoro-3-hydroxy-7-({[5-(hydroxymethyl)furan-2-yl]methyl}amino)-5,6,7,8-tetrahydronaphthalen-2-yl]-1λ^6,2,5-thiadiazolidine-1,1,3-trione], the 50% inhibitory concentration (IC50) in assay [1] and in assay [2] was 0.01 to 0.1 µM in each case.
As for `C[C@H]1Cc2c(cc(O)c(N3CC(=O)NS3(=O)=O)c2F)CN1` [Compound 289], the IC50 in assay [1] was greater than 0.1 µM; in assay [2], 0.01 to 0.1 µM.
With `Cc1noc(C)c1CCN1CCc2cc(O)c(N3CC(=O)NS3(=O)=O)c(F)c2C1` [Compound 211], the half-maximal inhibitory concentration (IC50) in assay [1] and in assay [2] was 0.001 to 0.01 µM each time.
Consider `O=C1CN(c2c(O)cc3c(c2F)CC(CNCCO)CC3)S(=O)(=O)N1` (stereo not shown) [Compound 403, 5-(1-fluoro-3-hydroxy-7-{[(2-hydroxyethyl)amino]methyl}-5,6,7,8-tetrahydronaphthalen-2-yl)-1λ^6,2,5-thiadiazolidine-1,1,3-trione], for which the half-maximal inhibitory concentration (IC50) in assay [1] and in assay [2] was 0.01 to 0.1 µM throughout.
